Source: patent US6677433B2 (The Regents of the University of California, priority 2001, dated 2004)

Key:
castor seed 2S protein = type: biochemical, Ricinus communis; details: 20 min at 25° C.
Acetylcholine Receptor = target: T1, Acetylcholine Receptor (Mus musculus, UniProt P02716+P04756+P04760); type: binding; details: cells treated with reductant, washed, then toxin; no reductant = 100
T1 construct: Mouse cells, line C2, were grown as described by Gu et al; endogenous in cells; host or cells: mouse cell line C2, after fusion medium (myotubes)

[1] = Reoxidation of reduced BLG in air; type: physicochemical; details: reduced by either NTS or DTT
Method: Two sulfhydryl (SH) groups can often spontaneously react to form an S—S bond in the presence of oxygen. […] For example, the reduced form of β-lactoglobulin (BLG), a major allergen of cow's milk, is fully reoxidized after 3 days in air whether reduced by either NTS or DTT. This invention provides for the stabilization of proteins, including allergenic proteins reduced by the NTS at 4° C. and by DTT at 55° C. Other physiological reductants such as lipoic acid may also be used to initially reduce the proteins. In general, the reduction reactions were conducted as described in previous examples. The proteins are stabilized in that the SH groups of these proteins and allergens are blocked and prevented from reoxidizing to form S—S bonds. This stabilization is maintained for at least three months, preferably at least six months and more preferably for longer than one year. Reduced BLG was stabilized by reaction with the physiological disulfides, cystamine and oxidized glutathione (GSSG) and also by heat. Other physiological disulfides such as homoglutathione and some microbial disulfides would also be suitable. Besides BLG, examples are provided for milk, peanut and pollen extracts. However, other reduced proteins such as those of egg, soy, rice, wheat and barley may also be stabilized by reaction with the same physiological disulfides and by treatment with heat. […]

atopic dogs = experiment: Skin tests in atopic dogs (wheal area); details: dog, in vivo
Method: Newborn pups from two litters of the atopic dog colony, designated CGB and GCB, were injected subcutaneously at day 1 with 1 μg each of wheat, cows milk and beef extract (Miles, Inc., Elkhart, Ind., described in Example 33) in 0.2 ml of alum. A third litter, designated CBB, was injected with a soy extract (Miles, Inc. described in Example 33) in addition to these same allergens. Procedures for the sensitization, testing and maintenance of the pups were substantially the same as those described in Example 36.
About 3 min prior to skin testing, each dog received 4-5 ml of filtered 0.5% Evans blue dye solution (equivalent to 0.2 ml of 0.5% Evans blue dye per kg of weight) through a cephalic vein to enhance assessment of the cutaneous IgE antibodies. Serial dilutions of 100 μl of each sample were injected intradermally on the abdominal skin to establish the titer. After 15-20 min, the allergic response was determined by measuring the size of the blue wheal reaction (maximum length and width). An appropriate negative control (buffer diluted in physiological saline) was included for each animal tested. Repeated tests with thioredoxin, NTR, NADPH and pepsin alone were consistently negative.

pepsin [2] = experiment: Pepsin assay in simulated gastric fluid; type: in vitro ADME, porcine; details: oxidized BLG in milk, SGF 37° C.
Method: BLG, 640 μg, or milk, 1 mg protein (i.e., about 30 μl), was incubated with or without the thioredoxin system (NTS) at either 4° C. […] The BLG, 320 μg, or milk, 500 μg protein, was then treated in 200 μl of simulated gastric fluid (SGF) as described by Astwood, J. D. et al. (1996), “Stability of food allergens to digestion in vitro”, Nature Biotechnol. 14:1269-1273. SGF consists of 0.32% pepsin (w/v) and 30 mM NaCl adjusted at pH 1.2 with HCl (Board of Trustees (ed.) 1995, Simulated Gastric Fluid, TS., pp. 2053 in the United States Pharmacopeia 23, The National Formulary 18. United States Pharmacopeial Convention, Inc. Rockville, Md.). The reaction mixture was incubated at 37° C. and stopped by adding 0.375-fold volume of 160 mM Na2CO3 (ca. pH 7) after 0, 0.25, 1, 2, 4, 8, 15, 30 and 60 min incubation. The protein mixture was then subjected to SDS-PAGE (15% gels) and stained for protein with Coomassie blue as described below. As indicated, the allergenicity of the digested samples was determined by skin test analysis.

trypsin = experiment: Trypsin proteolysis of purified milk allergen proteins; type: biochemical; details: 2 μg trypsin
Method: The analysis of the reduction was done using the mBBr/SDS-PAGE techniques. Further in this study, when 10 μg of an NTS reduced purified milk allergen protein, β-lactoglobulin (Sigma Chemical Co.), was treated with 2 μg of trypsin, proteolysis was 100% as compared with only 50% for the identically trypsin treated oxidized β-lactoglobulin. […] However, 10 μg of purified […] reduced by the NTS was proteolyzed 80% by trypsin. Also 10 μg of α-lactalbumin reduced by 0.8 μg of thioredoxin and 0.5 mM DTT was 100% proteolyzed by 2 μg of trypsin.

NADP/thioredoxin system = NADP/thioredoxin system (Escherichia coli, UniProt P0AA25)
Method: Reactions were carried out in physiological buffered saline solution (PBS; i.e., 10 mM Na2HPO4, 1.8 mM KH2PO4, 2.7 mM KCl and 137 mM NaCl, pH 7.4) containing either 10 μg of pure target protein or 50 μg of raw milk. The reaction mixtures were incubated at 4° C. overnight or at 37° C. and 55° C. for 45 min. For complete reduction, samples were incubated in PBS containing 5 μl of 100 mM DTT and boiled 5 min. The reduced proteins were visualized on gels by mBBr labeling and gel electrophoresis as described below. The extent of reduction was determined by scanning the gels.
Sulfhydryl groups were visualized as their fluorescent mBBr derivatives. mBBr, 10 μl of a 100 mM solution, was added to each protein sample. After 20 min of incubation, the reaction was stopped by adding 10 μl of 100 mM 2-mercaptoethanol, 10 μl of 20% SDS and 20 μl of SDS/PAGE sample buffer containing 80% (v/v) glycerol and 0.005% bromophenol blue. Proteins were then separated by SDS/PAGE (10-20% acrylamide gradient) as described below. After electrophoresis, gels were placed in 12% trichloroacetic acid for 1 hr for fixation and then soaked overnight or longer in 40% (v/v) methanol and 10% (v/v) acetic acid with several changes to remove excess mBBr. The destained gels were then placed under 365 nm UV light to visualize fluorescent bands. […]

pepsin [3] = experiment: Assay for stability to pepsin (simulated gastric fluid); type: in vitro ADME, porcine; details: 37° C.
Method: BLG (1 mg/ml) or milk (15 mg/ml) were mixed with simulated gastric fluid (SGF) to give 0.32% pepsin and incubated for the indicated times at 37° C. as described in Example 39 and Astwood et al., 1996, herein incorporated by reference. The digested proteins were analyzed by reducing SDS-PACE (10 to 20% gradient gel) also as described in Laemmli, 1970, herein incorporated by reference.

T1 sequence (P04760 23-519): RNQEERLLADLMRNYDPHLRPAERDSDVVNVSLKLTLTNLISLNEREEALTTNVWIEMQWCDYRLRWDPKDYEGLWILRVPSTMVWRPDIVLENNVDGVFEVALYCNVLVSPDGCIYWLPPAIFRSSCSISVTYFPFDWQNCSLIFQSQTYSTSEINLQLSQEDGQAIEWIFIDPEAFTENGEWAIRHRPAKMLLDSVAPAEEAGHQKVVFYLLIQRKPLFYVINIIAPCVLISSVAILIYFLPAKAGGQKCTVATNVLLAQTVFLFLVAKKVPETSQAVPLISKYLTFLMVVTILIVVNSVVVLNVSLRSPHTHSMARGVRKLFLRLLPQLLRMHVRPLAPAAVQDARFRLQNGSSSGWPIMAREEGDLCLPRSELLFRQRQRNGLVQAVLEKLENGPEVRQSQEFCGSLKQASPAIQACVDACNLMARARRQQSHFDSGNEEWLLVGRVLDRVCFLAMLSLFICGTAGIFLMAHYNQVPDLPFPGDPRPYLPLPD
T1 sequence (P02716 25-520): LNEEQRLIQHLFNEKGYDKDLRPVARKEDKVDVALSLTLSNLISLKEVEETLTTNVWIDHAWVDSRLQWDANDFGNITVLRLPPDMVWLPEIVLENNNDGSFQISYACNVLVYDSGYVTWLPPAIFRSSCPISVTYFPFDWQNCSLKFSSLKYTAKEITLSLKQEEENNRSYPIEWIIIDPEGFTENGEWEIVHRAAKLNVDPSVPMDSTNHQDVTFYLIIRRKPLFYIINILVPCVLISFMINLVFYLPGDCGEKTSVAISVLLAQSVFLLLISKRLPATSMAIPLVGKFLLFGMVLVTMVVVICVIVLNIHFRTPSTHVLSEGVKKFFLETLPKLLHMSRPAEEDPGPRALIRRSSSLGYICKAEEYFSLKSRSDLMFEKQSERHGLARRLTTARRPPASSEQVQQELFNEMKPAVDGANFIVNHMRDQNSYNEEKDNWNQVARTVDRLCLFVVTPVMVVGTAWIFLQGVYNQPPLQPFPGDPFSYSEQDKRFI
T1 sequence (P09690 24-501, further chain): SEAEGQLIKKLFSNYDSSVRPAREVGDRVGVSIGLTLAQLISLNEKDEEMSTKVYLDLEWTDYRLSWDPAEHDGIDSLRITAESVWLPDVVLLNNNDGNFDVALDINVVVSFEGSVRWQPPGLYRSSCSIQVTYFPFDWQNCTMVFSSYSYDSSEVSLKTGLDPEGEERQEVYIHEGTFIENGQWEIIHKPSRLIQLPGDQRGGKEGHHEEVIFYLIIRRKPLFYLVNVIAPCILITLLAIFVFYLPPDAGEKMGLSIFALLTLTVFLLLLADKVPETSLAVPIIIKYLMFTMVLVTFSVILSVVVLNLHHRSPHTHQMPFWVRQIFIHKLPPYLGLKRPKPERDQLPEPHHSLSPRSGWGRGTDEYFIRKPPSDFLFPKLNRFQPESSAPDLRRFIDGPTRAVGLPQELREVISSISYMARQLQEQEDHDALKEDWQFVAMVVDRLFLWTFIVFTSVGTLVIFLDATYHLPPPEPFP
T1 sequence (P04756 21-457): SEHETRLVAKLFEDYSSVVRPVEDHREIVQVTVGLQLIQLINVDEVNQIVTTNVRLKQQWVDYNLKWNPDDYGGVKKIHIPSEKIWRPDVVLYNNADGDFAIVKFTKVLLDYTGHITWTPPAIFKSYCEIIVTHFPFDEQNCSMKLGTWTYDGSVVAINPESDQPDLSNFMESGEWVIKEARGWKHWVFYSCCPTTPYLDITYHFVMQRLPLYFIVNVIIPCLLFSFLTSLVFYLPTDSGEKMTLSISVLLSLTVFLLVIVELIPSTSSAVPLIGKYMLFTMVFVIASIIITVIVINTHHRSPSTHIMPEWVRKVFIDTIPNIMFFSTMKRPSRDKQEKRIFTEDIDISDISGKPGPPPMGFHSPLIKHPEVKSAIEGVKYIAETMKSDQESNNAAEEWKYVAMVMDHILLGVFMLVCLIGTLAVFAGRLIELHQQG

O[C@H](CS)[C@H](O)CS (racemic) [DTT, dithiothreitol]
Relative Reduction (%) (castor seed 2S protein): 67%
% Binding, Treatment C (Acetylcholine Receptor): 85.0%

reduced form of BLG: BLG reduced by either NTS or DTT
time to full reoxidation in air [1]: 3 days

β-lactoglobulin: bovine β-lactoglobulin, major milk allergen; Control = untreated BLG in Tables XVIII, XXI-XXIV
share of the total wheal-inducing activity of milk (atopic dogs): 80%
time resisting digestion (pepsin [2]): at least 60 min
proteolysis by trypsin (trypsin; 10 μg oxidized protein): 50%
proteolysis by trypsin (trypsin; 10 μg protein reduced by the NTS): 100%
time BLG remained reduced (NADP/thioredoxin system): 2 days
half-life in SGF (pepsin [3]): about 2 hours
